From PubChem BioAssay (NCI)
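Values below derive from 48-hour exposures of cells grown in 96-well plates, with endpoints linearly interpolated between the two concentrations bracketing the appropriate inhibition level. The concentration for full growth arrest is given as TGI.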

How the values were obtained:
Assay in all cases: NCI anticancer screen, dose series, 48 h
SN12C renal = system: SN12C renal
UO-31 renal = system: UO-31 renal
OVCAR-5 ovarian = system: OVCAR-5 ovarian
SF-295 CNS = system: SF-295 CNS
TK-10 renal = system: TK-10 renal
NCI-H522 lung = system: NCI-H522 lung
SF-268 CNS = system: SF-268 CNS
HCT-15 colon = system: HCT-15 colon
MALME-3M melanoma = system: MALME-3M melanoma
PC-3 prostate = system: PC-3 prostate

SMILES: O=C(O)C(Cc1ccccc1)N1C(=O)c2ccccc2C1=O (centres undefined)
- TGI (SN12C renal): > 100 µM
- TGI (UO-31 renal): > 100 µM
- TGI (OVCAR-5 ovarian): > 100 µM
- TGI (SF-295 CNS): > 100 µM
- TGI (TK-10 renal): > 100 µM
- TGI (NCI-H522 lung): > 100 µM
- TGI (SF-268 CNS): > 100 µM
- TGI (HCT-15 colon): > 100 µM
- TGI (MALME-3M melanoma): > 100 µM
- TGI (PC-3 prostate): > 100 µM

SMILES: N=C(N)C(N=Nc1ccccc1)C(=N)N (centres undefined)
- TGI (SN12C renal): > 100 µM
- TGI (UO-31 renal): > 100 µM
- TGI (OVCAR-5 ovarian): > 100 µM
- TGI (SF-295 CNS): > 100 µM
- TGI (TK-10 renal): > 100 µM
- TGI (NCI-H522 lung): > 100 µM
- TGI (SF-268 CNS): > 100 µM
- TGI (HCT-15 colon): > 100 µM
- TGI (MALME-3M melanoma): > 100 µM
- TGI (PC-3 prostate): > 100 µM

SMILES: COc1nc(C#CCCCC#N)nc(OC)n1
- TGI (SN12C renal): 36.5 µM
- TGI (UO-31 renal): 24.9 µM
- TGI (OVCAR-5 ovarian): 27.8 µM
- TGI (SF-295 CNS): 84.6 µM
- TGI (TK-10 renal): 37.7 µM
- TGI (NCI-H522 lung): 29.4 µM
- TGI (SF-268 CNS): 94.4 µM
- TGI (HCT-15 colon): 18.3 µM
- TGI (MALME-3M melanoma): 28.5 µM
- TGI (PC-3 prostate): 30.9 µM

SMILES: O=C1CC(n2cccc2)c2cc(Br)sc21 (centres undefined)
- TGI (SN12C renal): > 100 µM
- TGI (UO-31 renal): > 100 µM
- TGI (OVCAR-5 ovarian): > 100 µM
- TGI (SF-295 CNS): > 100 µM
- TGI (TK-10 renal): > 100 µM
- TGI (NCI-H522 lung): 75.5 µM
- TGI (SF-268 CNS): > 100 µM
- TGI (HCT-15 colon): > 100 µM
- TGI (MALME-3M melanoma): > 100 µM
- TGI (PC-3 prostate): > 100 µM

SMILES: CC(=O)OCCC[C@@H]1C(=C(C)C)CCC2[C@@]1(C)CC[C@@]1(C)C[C@](C)(CCC=C(C)C)CC[C@]21C (some centres undefined)
- TGI (SN12C renal): > 100 µM
- TGI (UO-31 renal): 46.1 µM
- TGI (OVCAR-5 ovarian): > 100 µM
- TGI (SF-295 CNS): > 100 µM
- TGI (TK-10 renal): 0.0632 µM
- TGI (NCI-H522 lung): > 100 µM
- TGI (SF-268 CNS): > 100 µM
- TGI (HCT-15 colon): > 100 µM
- TGI (MALME-3M melanoma): > 100 µM
- TGI (PC-3 prostate): > 100 µM

SMILES: CC1=CC[C@@]2(C)[C@@H]([C@@H]1C)[C@H]1CC[C@@H]3[C@@]4(C)CC[C@H](O)C(C)(C)[C@@H]4CC[C@@]3(C)[C@]1(C)C[C@@H]2O
- TGI (SN12C renal): > 100 µM
- TGI (UO-31 renal): > 100 µM
- TGI (OVCAR-5 ovarian): > 78.2 µM
- TGI (SF-295 CNS): 43.4 µM
- TGI (TK-10 renal): > 70.7 µM
- TGI (NCI-H522 lung): 8.15 µM
- TGI (SF-268 CNS): 25.2 µM
- TGI (HCT-15 colon): > 71.6 µM
- TGI (MALME-3M melanoma): > 68.7 µM
- TGI (PC-3 prostate): 40.6 µM

SMILES: C=CCOCCCC(=O)C(=[N+]=[N-])C(=O)OC
- TGI (SN12C renal): > 100 µM
- TGI (UO-31 renal): > 100 µM
- TGI (OVCAR-5 ovarian): > 100 µM
- TGI (SF-295 CNS): > 100 µM
- TGI (TK-10 renal): > 100 µM
- TGI (NCI-H522 lung): > 100 µM
- TGI (SF-268 CNS): > 100 µM
- TGI (HCT-15 colon): > 100 µM
- TGI (MALME-3M melanoma): > 100 µM

SMILES: OC(c1ccc(-c2ccccc2)cc1)(c1ccc(-c2ccccc2)cc1)c1ccc(-c2ccccc2)cc1
- TGI (SN12C renal): > 100 µM
- TGI (UO-31 renal): > 100 µM
- TGI (OVCAR-5 ovarian): > 100 µM
- TGI (SF-295 CNS): > 100 µM
- TGI (TK-10 renal): > 100 µM
- TGI (NCI-H522 lung): > 100 µM
- TGI (SF-268 CNS): > 100 µM
- TGI (HCT-15 colon): > 100 µM
- TGI (PC-3 prostate): > 100 µM

SMILES: OC1C=C2C3CN(Cc4cc5c(cc43)OCO5)[C@H]2C[C@@H]1O (some centres undefined)
- TGI (SN12C renal): > 100 µM
- TGI (UO-31 renal): 71.4 µM
- TGI (OVCAR-5 ovarian): 73.3 µM
- TGI (SF-295 CNS): > 100 µM
- TGI (TK-10 renal): 39.3 µM
- TGI (NCI-H522 lung): > 100 µM
- TGI (SF-268 CNS): > 100 µM
- TGI (HCT-15 colon): 34.1 µM
- TGI (MALME-3M melanoma): > 100 µM
- TGI (PC-3 prostate): 22.6 µM

SMILES: O=C1CS(=O)(=O)C(c2cccc(Oc3ccccc3)c2)N1c1cccc(Cl)c1Cl (centres undefined)
- TGI (SN12C renal): 44.6 µM
- TGI (UO-31 renal): > 100 µM
- TGI (OVCAR-5 ovarian): > 100 µM
- TGI (SF-295 CNS): > 100 µM
- TGI (TK-10 renal): 67.3 µM
- TGI (NCI-H522 lung): 39.4 µM
- TGI (SF-268 CNS): 55.2 µM
- TGI (MALME-3M melanoma): 59.5 µM
- TGI (PC-3 prostate): 89.9 µM

SMILES: O=C(NN1C(=O)/C(=C/c2ccc(Cl)cc2)N=C1c1ccccc1)c1c(Cl)c(Cl)c(Cl)c(Cl)c1-c1nc2ccccc2[nH]1
- TGI (SN12C renal): 86.4 µM
- TGI (UO-31 renal): > 100 µM
- TGI (OVCAR-5 ovarian): > 100 µM
- TGI (SF-295 CNS): > 100 µM
- TGI (NCI-H522 lung): 83.4 µM
- TGI (SF-268 CNS): 62.5 µM
- TGI (HCT-15 colon): 28.3 µM
- TGI (MALME-3M melanoma): 54.6 µM
- TGI (PC-3 prostate): > 100 µM

SMILES: O=C1c2ccccc2-c2ccc(O)cc21
- TGI (SN12C renal): 36.9 µM
- TGI (UO-31 renal): 32.1 µM
- TGI (OVCAR-5 ovarian): 68.5 µM
- TGI (SF-295 CNS): 96.2 µM
- TGI (TK-10 renal): 49.5 µM
- TGI (NCI-H522 lung): 32.9 µM
- TGI (SF-268 CNS): 47.2 µM
- TGI (HCT-15 colon): 49.6 µM
- TGI (MALME-3M melanoma): 49.2 µM
- TGI (PC-3 prostate): 42.9 µM

SMILES: O=C1CCC(NC(=O)Cc2ccc(O)cc2)C(=O)N1 (centres undefined)
- TGI (SN12C renal): > 2500 µM
- TGI (UO-31 renal): > 2500 µM
- TGI (OVCAR-5 ovarian): > 2500 µM
- TGI (SF-295 CNS): > 2500 µM
- TGI (TK-10 renal): > 2500 µM
- TGI (NCI-H522 lung): > 2500 µM
- TGI (SF-268 CNS): > 2500 µM
- TGI (HCT-15 colon): > 2500 µM

SMILES: CN(C)CCNc1c([N+](=O)[O-])cc2c3c(cccc13)C(=O)N(CCN(C)C)C2=O
- TGI (SN12C renal): 9.28 µM
- TGI (UO-31 renal): 4.2 µM
- TGI (OVCAR-5 ovarian): 4.96 µM
- TGI (SF-295 CNS): 6.69 µM
- TGI (NCI-H522 lung): 2.79 µM
- TGI (SF-268 CNS): 4.6 µM
- TGI (HCT-15 colon): 5.54 µM
- TGI (MALME-3M melanoma): 2.28 µM

SMILES: N#CCc1[nH]nc2nc(SCc3ccccc3)nc(N3CCCCC3)c12
- TGI (SN12C renal): 28.7 µM
- TGI (UO-31 renal): 35.9 µM
- TGI (OVCAR-5 ovarian): 36 µM
- TGI (SF-295 CNS): 35.3 µM
- TGI (TK-10 renal): 40.5 µM
- TGI (NCI-H522 lung): 37.9 µM
- TGI (SF-268 CNS): 36.7 µM
- TGI (HCT-15 colon): > 100 µM
- TGI (MALME-3M melanoma): 41.8 µM
- TGI (PC-3 prostate): 34 µM

SMILES: CCN(CC)/C(=C\Cl)Nc1ccccn1
- TGI (SN12C renal): > 100 µM
- TGI (UO-31 renal): > 100 µM
- TGI (OVCAR-5 ovarian): > 100 µM
- TGI (SF-295 CNS): > 100 µM
- TGI (TK-10 renal): > 100 µM
- TGI (NCI-H522 lung): > 100 µM
- TGI (SF-268 CNS): > 100 µM
- TGI (HCT-15 colon): > 100 µM
- TGI (MALME-3M melanoma): > 100 µM

SMILES: S=C(NCCCCCCNC(=S)Nc1c2ccccc2nc2ccccc12)Nc1c2ccccc2nc2ccccc12
- TGI (SN12C renal): > 100 µM
- TGI (UO-31 renal): > 100 µM
- TGI (OVCAR-5 ovarian): > 100 µM
- TGI (SF-295 CNS): > 100 µM
- TGI (NCI-H522 lung): > 100 µM
- TGI (SF-268 CNS): > 100 µM
- TGI (HCT-15 colon): > 100 µM
- TGI (MALME-3M melanoma): > 100 µM
